According to patent publication US10399948B2, “Negative allosteric modulators of metabotropic glutamate receptor 3” (Vanderbilt University, priority 2015, dated 2019):
Like-named read-outs stand apart in the source and are kept apart here.

Columns and labels:
Type in all cases: cell-based
rat mGlu2 = rat mGlu2 (Rattus norvegicus (Rat), UniProt P31421); experiment: mGlu2 Ca2+ flux assay; conditions: NAM, glutamate EC80; >30,000 = no measurable activity
Description: (§1) Gα15 HEK293 cells stably expressing rat mGlu2 were plated in black-walled, clear-bottomed, poly-D-lysine coated 384-well plates in 20 μL of assay medium (DMEM containing 10% dialyzed FBS, 20 mM HEPES, and 1 mM sodium pyruvate) at a density of 12K cells/well. The cells were grown overnight at 37° C. in the presence of 5% CO2. The next day, medium was removed and the cells incubated with 20 μL of […] Fluo-4, AM prepared as a 2.3 mM stock in DMSO and mixed in a 1:1 ratio with 10% (w/v) pluronic acid F-127 and diluted in assay buffer (Hank's balanced salt solution, 20 mM HEPES, and 2.5 mM probenecid) for 45 minutes at 37° C. Dye was removed, 20 μL of assay buffer was added, and the plate was incubated for 5 minutes at room temperature.
(§2) Ca^2+ flux was measured using the Functional Drug Screening System (FDSS7000, Hamamatsu, Japan). After establishment of a fluorescence baseline for about 3 seconds, the compounds of the present invention were added to the cells, and the response in cells was measured. 2.3 minutes later an EC20 concentration of the mGlu2 receptor agonist glutamate was added to the cells, and the response of the cells was measured for 1.9 minutes; an EC80 concentration of agonist was added and readings taken for an additional 1.7 minutes. All test compounds were dissolved and diluted to a concentration of 10 mM in 100% DMSO. Compounds were then serially diluted 1:3 in DMSO into 10 point concentration response curves, transferred to daughter plates, and further diluted into assay buffer to a 2× stock. Calcium fluorescence measures were recorded as fold over basal fluorescence; raw data was then normalized to the maximal response to glutamate.
(§3) The raw data file containing all time points was used as the data source in the analysis template. This was saved by the FDSS as a tab-delimited text file. Data were normalized using a static ratio function (F/F0) for each measurement of the total 360 values per well divided by each well's initial value. Data were then reduced to peak amplitudes (Max−Initial Min) using a time range that starts approximately 3 seconds prior to the glutamate EC80 addition and continues for approximately 90 seconds. This is sufficient time to capture the peak amplitude of the cellular calcium response. Individual amplitudes were expressed as % ECMax by multiplying each amplitude by 100 and then dividing the product by the mean of the amplitudes derived from the glutamate ECMax-treated wells. IC50 values for test compounds were generated by fitting the normalized values versus the log of the test compound concentration (in mol/L) using a 4 parameter logistic equation where none of the parameters were fixed. Each of the three values collected at each concentration of test compound were weighted evenly.

rat mGlu5 = rat mGlu5 (Rattus norvegicus (Rat), UniProt P31424); experiment: mGlu5 Ca2+ flux assay; conditions: for EC50: glutamate EC20, >10,000 = no plateau, >30,000 = no measurable activity, read-out: rat mGlu5 EC50 or IC50; for activity at 30 µM: read-out: rat mGlu5 Glu max (%)
Sequence of rat mGlu5 (P31424 21-1203): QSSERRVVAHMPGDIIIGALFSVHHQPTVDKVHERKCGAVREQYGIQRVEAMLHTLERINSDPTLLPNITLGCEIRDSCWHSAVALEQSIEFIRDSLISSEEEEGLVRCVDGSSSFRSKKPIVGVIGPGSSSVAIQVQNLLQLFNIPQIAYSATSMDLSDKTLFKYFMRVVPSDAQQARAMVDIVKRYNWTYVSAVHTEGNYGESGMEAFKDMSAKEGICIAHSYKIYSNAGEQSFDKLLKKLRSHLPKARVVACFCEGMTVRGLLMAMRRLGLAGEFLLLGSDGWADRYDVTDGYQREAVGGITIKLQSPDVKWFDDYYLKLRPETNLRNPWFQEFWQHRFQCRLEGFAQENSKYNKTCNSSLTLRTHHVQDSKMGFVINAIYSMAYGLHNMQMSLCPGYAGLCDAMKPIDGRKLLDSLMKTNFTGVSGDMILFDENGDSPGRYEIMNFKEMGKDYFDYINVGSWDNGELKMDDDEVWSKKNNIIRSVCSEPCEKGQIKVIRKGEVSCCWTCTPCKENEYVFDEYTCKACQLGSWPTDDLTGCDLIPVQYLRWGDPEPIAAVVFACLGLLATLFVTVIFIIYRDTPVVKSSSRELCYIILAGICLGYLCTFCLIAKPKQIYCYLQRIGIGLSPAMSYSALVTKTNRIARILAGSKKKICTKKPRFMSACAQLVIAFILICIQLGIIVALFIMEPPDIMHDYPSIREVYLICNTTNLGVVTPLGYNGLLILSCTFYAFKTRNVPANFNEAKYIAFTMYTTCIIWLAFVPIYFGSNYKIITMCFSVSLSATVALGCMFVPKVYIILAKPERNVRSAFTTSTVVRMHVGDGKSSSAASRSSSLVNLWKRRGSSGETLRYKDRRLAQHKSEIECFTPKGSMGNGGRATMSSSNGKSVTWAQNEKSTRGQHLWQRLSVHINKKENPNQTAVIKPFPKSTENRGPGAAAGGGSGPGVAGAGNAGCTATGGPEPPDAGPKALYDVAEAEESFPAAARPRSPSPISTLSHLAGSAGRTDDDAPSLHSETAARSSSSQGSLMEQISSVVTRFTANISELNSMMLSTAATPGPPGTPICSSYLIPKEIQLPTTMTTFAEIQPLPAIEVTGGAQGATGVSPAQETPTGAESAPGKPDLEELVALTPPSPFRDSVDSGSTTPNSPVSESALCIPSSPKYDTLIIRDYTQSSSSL
Description: as §1, with “HEK 293A cells stably” for “Gα15 HEK293 cells stably”, “expressing rat mGlu5 were plated” for “expressing rat mGlu2 were plated”, “mM HEPES, 100 units/mL penicillin/streptomycin plus 250 ng/mL Fungizone, and 1” for “mM HEPES, and 1”, “density of 20K cells/well. The” for “density of 12K cells/well. The”
as §2, with “mGlu5” for “mGlu2”
as §3, with “glutamate EC20/EC80” for “glutamate EC80”, “approximately 90-120” for “approximately 90”, “% EMax” for “% ECMax”, “wells. EC50” for “wells. IC50”

rat mGlu3 = rat mGlu3 (Rattus norvegicus (Rat), UniProt P31422); experiment: mGlu3 Ca2+ flux assay; conditions: for IC50: NAM, glutamate EC80, >10,000 = decrease without plateau, >30,000 = no measurable activity; for remaining activity at 30 µM: read-out: rat mGlu3 Glu max (%)
Sequence of rat mGlu3 (P31422 23-879): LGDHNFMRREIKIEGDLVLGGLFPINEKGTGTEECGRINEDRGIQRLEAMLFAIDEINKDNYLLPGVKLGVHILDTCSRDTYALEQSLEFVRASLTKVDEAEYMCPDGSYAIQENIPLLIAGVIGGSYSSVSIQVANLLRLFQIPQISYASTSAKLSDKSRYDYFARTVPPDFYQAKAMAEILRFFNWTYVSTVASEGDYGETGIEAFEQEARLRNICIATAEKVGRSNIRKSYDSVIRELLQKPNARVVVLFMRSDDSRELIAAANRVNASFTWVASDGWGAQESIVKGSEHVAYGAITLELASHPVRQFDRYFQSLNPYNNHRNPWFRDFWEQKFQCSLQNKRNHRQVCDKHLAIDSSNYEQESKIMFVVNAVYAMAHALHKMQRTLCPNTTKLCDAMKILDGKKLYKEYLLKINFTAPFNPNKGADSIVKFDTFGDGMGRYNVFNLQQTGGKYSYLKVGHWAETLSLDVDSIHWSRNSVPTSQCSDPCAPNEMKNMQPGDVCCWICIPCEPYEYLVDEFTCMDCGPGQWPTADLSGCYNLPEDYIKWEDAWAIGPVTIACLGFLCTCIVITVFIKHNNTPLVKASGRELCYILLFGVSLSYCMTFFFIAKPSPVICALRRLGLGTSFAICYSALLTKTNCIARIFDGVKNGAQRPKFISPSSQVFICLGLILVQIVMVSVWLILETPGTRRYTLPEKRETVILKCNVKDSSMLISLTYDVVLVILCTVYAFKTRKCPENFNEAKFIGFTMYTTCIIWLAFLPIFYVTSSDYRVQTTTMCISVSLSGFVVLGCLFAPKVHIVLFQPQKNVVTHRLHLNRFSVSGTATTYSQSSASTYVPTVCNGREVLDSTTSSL
Description: Gα15/TREx cells stably expressing rat mGlu3 were plated in black-walled, clear-bottomed, poly-D-lysine coated 384-well plates in 20 μL of assay medium (DMEM containing 10% dialyzed FBS, 20 mM HEPES, 25 ng/mL tetracycline, 100 units/mL penicillin/streptomycin plus 250 ng/mL Fungizone, and 1 mM sodium pyruvate) at a density of 15K cells/well. The cells were grown overnight at 37° C. in the presence of 5% CO2. […] Dye was removed, 20 μL of assay buffer was added, and the plate was incubated for 10 minutes at room temperature.
as §2, with “mGlu3” for “mGlu2”
as §3, with “% EMax” for “% ECMax”, “wells. EC50” for “wells. IC50”

[1] = PAM, response at 30 μM test compound as percentage of maximal response to glutamate
[2] = response at 30 μM test compound as percentage of maximal response to glutamate

Sequence of rat mGlu2 (P31421 19-872): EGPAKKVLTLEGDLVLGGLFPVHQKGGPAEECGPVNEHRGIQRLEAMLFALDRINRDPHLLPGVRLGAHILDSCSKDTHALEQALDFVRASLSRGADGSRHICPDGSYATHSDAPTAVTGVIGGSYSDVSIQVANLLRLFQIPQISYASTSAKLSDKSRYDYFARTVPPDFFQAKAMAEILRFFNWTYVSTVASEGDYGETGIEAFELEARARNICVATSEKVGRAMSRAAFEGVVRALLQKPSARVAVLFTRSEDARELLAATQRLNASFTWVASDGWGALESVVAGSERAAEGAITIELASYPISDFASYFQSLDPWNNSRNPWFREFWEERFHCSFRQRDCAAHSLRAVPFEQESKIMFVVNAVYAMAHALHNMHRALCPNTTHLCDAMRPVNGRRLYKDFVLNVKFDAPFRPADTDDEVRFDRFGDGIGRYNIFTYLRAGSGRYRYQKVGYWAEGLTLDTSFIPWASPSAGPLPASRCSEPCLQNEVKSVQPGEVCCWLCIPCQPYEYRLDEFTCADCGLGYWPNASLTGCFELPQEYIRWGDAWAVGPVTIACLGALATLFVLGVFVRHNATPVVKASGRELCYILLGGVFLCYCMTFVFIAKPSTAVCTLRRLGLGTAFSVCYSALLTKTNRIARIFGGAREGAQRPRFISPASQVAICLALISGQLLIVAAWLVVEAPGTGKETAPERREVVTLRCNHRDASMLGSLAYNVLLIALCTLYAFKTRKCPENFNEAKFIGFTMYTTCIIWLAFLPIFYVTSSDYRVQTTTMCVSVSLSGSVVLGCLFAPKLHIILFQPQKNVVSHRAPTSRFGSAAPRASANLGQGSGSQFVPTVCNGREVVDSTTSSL

SMILES | IC50 (rat mGlu2) | EC50 (rat mGlu5; PAM) | activity at 30 µM (rat mGlu5; [1]) | IC50 (rat mGlu3) | remaining activity at 30 µM (rat mGlu3; [2]) | activity at 30 µM (rat mGlu5) | remaining activity at 30 µM (rat mGlu3)
O=c1cc(OCCOc2cccc(F)c2F)ccn1-c1ccc(F)cc1 [Compound 33, 4-(2-(2,3-difluorophenoxy)ethoxy)-1-(4-fluorophenyl)pyridin-2(1H)-one] | > 30 µM | 6.85 µM | 94.1% | 0.917 µM | -0.23% | – | –
O=c1cc(OCCOc2cc(Cl)ccn2)ccn1-c1ccc(F)cc1 [Compound 49, 4-(2-((4-Chloropyridin-2-yl)oxy)ethoxy)-1-(4-fluorophenyl)pyridin-2(1H)-one] | > 30 µM | 8.8 µM | 82.3% | 0.563 µM | 0.73% | – | –
O=c1nc(OCCOc2ccccc2)ccn1-c1ccc(F)c(F)c1 [Compound 15, 1-(3,4-difluorophenyl)-4-(2-phenoxyethoxy)pyrimidin-2(1H)-one] | > 30 µM | 0.427 µM | 83% | 0.219 µM | 2.44% | – | –
O=c1cc(OCCOc2ccc(Cl)cn2)ccn1-c1ccc(F)cc1 [Compound 55, 4-(2-((5-chloropyridin-2-yl)oxy)ethoxy)-1-(4-fluorophenyl)pyridin-2(1H)-one] | > 30 µM | > 10 µM | 25.2% | 0.729 µM | 0.32% | – | –
O=c1cc(OCCOc2ccccc2)ccn1-c1cc(F)cc(F)c1 [Compound 21, 1-(3,5-difluorophenyl)-4-(2-phenoxyethoxy)pyridin-2(1H)-one] | – | 0.818 µM | – | 0.799 µM | – | 28.3% | 7.25%
N#Cc1cccnc1OCCOc1ccn(-c2ccc(F)cc2)c(=O)c1 [Compound 56, 2-(2-((1-(4-fluorophenyl)-2-oxo-1,2-dihydropyridin-4-yl)oxy)ethoxy)nicotinonitrile] | > 30 µM | – | – | > 10 µM | 18% | – | –
O=c1cc(OCCOc2cccnc2F)ccn1-c1ccc(F)cc1 [Compound 40, 1-(4-fluorophenyl)-4-(2-((2-fluoropyridin-3-yl)oxy)ethoxy)pyridin-2(1H)-one] | > 30 µM | – | – | 4.74 µM | -4.22% | – | –
O=c1cc(OCCOc2ccccn2)ccn1-c1ccc(F)cc1 [Compound 50, 1-(4-fluorophenyl)-4-(2-(pyridin-2-yloxy)ethoxy)pyridin-2(1H)-one] | > 30 µM | – | – | 1.94 µM | -0.52% | – | –
O=c1cc(OCCSc2ccccc2)ccn1-c1ccc(F)cc1 [Compound 3, 1-(4-fluorophenyl)-4-(2-(phenylthio)ethoxy)pyridin-2(1H)-one] | > 30 µM | – | – | 3.89 µM | 1.42% | – | –
O=c1cc(OCCOc2ccccc2)ccn1-c1ccccn1 [Compound 11, 4-(2-phenoxyethoxy)-2H-[1,2′-bipyridin]-2-one] | > 30 µM | – | – | > 30 µM | – | – | –
O=c1cc(OCCOc2ccccc2)ccn1-c1ccccc1F [Compound 10, 1-(2-Fluorophenyl)-4-(2-phenoxyethoxy)pyridin-2-one] | > 30 µM | – | – | 3.93 µM | 1.16% | – | –
N#Cc1ccc(-n2ccc(OCCOc3ccccc3)cc2=O)cc1 [Compound 24, 4-(2-oxo-4-(2-phenoxyethoxy)pyridin-1(2H)-yl)benzonitrile] | > 30 µM | – | – | 3.17 µM | 0.49% | – | –
O=c1cc(OCCOc2cccnc2Cl)ccn1-c1ccc(F)cc1 [Compound 48, 4-(2-((2-chloropyridin-3-yl)oxy)ethoxy)-1-(4-fluorophenyl)pyridin-2(1H)-one] | > 30 µM | – | – | 5.56 µM | -2.79% | – | –
O=c1cc(OCCOc2ccccc2)ccn1-c1cncc(F)c1 [Compound 27, 5′-fluoro-4-(2-phenoxyethoxy)-2H-[1,3′-bipyridin]-2-one] | > 30 µM | – | – | 1.87 µM | 4.56% | – | –
O=c1cc(OCCOc2cncc(Cl)c2)ccn1-c1ccc(F)cc1 [Compound 46, 4-(2-((5-chloropyridin-3-yl)oxy)ethoxy)-1-(4-fluorophenyl)pyridin-2(1H)-one] | > 30 µM | – | – | 2.79 µM | 0.41% | – | –
O=c1cc(OCCOc2cccnc2)ccn1-c1ccc(F)cc1 [Compound 44, 1-(4-fluorophenyl)-4-(2-(pyridin-3-yloxy)ethoxy)pyridin-2(1H)-one] | > 30 µM | – | – | 10 µM | 1.83% | – | –
